Assay results from patent publication US9700546B2, “Trivalent chromium compounds, compositions and methods of use” (INTERHEALTH NUTRACEUTICALS, INC., priority 2006, dated 2017).
Like-named read-outs stand apart in the source and are kept apart here.

Tests used:
Obese Zucker rats [1] = conditions: rat, in vivo
Obese Zucker rats [2] = test: In vivo assessment in obese Zucker rats: other vascular inflammation markers (cAMP, TNFα, IL-6, OxyDNA); conditions: obese Zucker rats, daily 400 μg Cr(III)/kg, 8 weeks, mean ± SE; for OxyDNA: oxidative DNA damage
Obese Zucker rats [3] = test: In vivo assessment in obese Zucker rats: vascular inflammation markers (MCP-1, CRP, RBP-4, leptin, ICAM, adiponectin); conditions: obese Zucker rats, daily 400 μg Cr(III)/kg, 8 weeks, mean; for Adiponectin / CRP / MCP-1: plasma, ELISA
Obese Zucker rats [4] = test: In vivo assessment in obese Zucker rats: blood lipid profile (total cholesterol, triglycerides, HDL); conditions: daily 400 μg Cr(III)/kg, 8 weeks, mean
Obese Zucker rats [5] = test: In vivo assessment in obese Zucker rats: key biological parameters (fasting glucose, HbA1c, vitamin C, GSH, RBC lipid peroxidation); conditions: obese Zucker rats, daily 400 μg Cr(III)/kg, 8 weeks, mean; for RBC Lipid Peroxidase: malondialdehyde by thiobarbituric acid; for Fasting Glucose: fasted overnight
Obese Zucker rats [6] = test: In vivo assessment in obese Zucker rats: clinical chemistry (AP, BUN, CRT, AST, ALT); conditions: obese Zucker rats; mean ± SE

“Chromium Picolinate + Biotin [CrP + Biotin]” was tested, and the “ALT (Alanine Aminotransferease)” value (Obese Zucker rats [1]) was 100.71 u/L, the “AP (Alkaline phosphatase)” value (Obese Zucker rats [1]) was 64.00 u/L and the “AST (Aspartate Aminotransferase)” value (Obese Zucker rats [1]) was 160.29 u/L. For the same molecule, the “Anion Gap” value (Obese Zucker rats [1]) was 25.86, the “BUN (Blood Urea Nitrogen)” value (Obese Zucker rats [1]) was 19.14 mg/dL and the “BUN/CRT Ratio” value (Obese Zucker rats [1]) was 46.50. For the same molecule, the “CRT (Creatinine)” value (Obese Zucker rats [1]) was 0.41 mg/dL and the “Total Bilirubin” value (Obese Zucker rats [1]) was 0.10 mg/dL.
For Chromium Cinnamate [CrCin], the IL-6 (Obese Zucker rats [2]) was 92.94 ± 13.21 pg/mL, the TNFα (Obese Zucker rats [2]) was 8.62 ± 4.90 pg/mL and the cAMP (Obese Zucker rats [2]) was 29.24 ± 0.61 pmol/mL. For the same molecule, the OxyDNA (Obese Zucker rats [2]) was 48.71 ± 1.25 ng/mL, the Leptin (Obese Zucker rats [3]) was 379.18 pg/mL and the RBP-4 (Obese Zucker rats [3]) was 47905.13 ng/mL. The Adiponectin (Obese Zucker rats [3]) was 11507.60 ng/mL, the CRP (Obese Zucker rats [3]) was 587.35 ng/mL and the MCP-1 (Obese Zucker rats [3]) was 2428.69 pg/mL. For the same molecule, the HDL (Obese Zucker rats [4]) was 65.44 mg/dL, the “Total Chol/HDL” value (Obese Zucker rats [4]) was 2.94 ratio and the “Total Cholesterol” value (Obese Zucker rats [4]) was 191.11 mg/dL. The Triglyceride (Obese Zucker rats [4]) was 507.35 mg/dL, the “RBC Lipid Peroxidase” value (Obese Zucker rats [5]) was 3.12 nmol/mL and the “Fasting Glucose” value (Obese Zucker rats [5]) was 557.37 mg/dL. The GSH (Obese Zucker rats [5]) was 5.00 µmol/g, the HbA1c (Obese Zucker rats [5]) was 15.61% and the “ALT (Alanine Aminotransferease)” value (Obese Zucker rats [1]) was 158.71 u/L. For the same molecule, the “AP (Alkaline phosphatase)” value (Obese Zucker rats [1]) was 30.71 u/L, the “AST (Aspartate Aminotransferase)” value (Obese Zucker rats [1]) was 230.14 u/L and the “Anion Gap” value (Obese Zucker rats [1]) was 29.86. For the same molecule, the “BUN (Blood Urea Nitrogen)” value (Obese Zucker rats [1]) was 21.43 mg/dL, the “BUN/CRT Ratio” value (Obese Zucker rats [1]) was 51.86 and the “CRT (Creatinine)” value (Obese Zucker rats [1]) was 0.41 mg/dL. For the same molecule, the “Total Bilirubin” value (Obese Zucker rats [1]) was 0.10 mg/dL.
Chromium Tryptophanate [CrTrp] was tested, and the IL-6 (Obese Zucker rats [2]) was 86.62 ± 6.81 pg/mL, the TNFα (Obese Zucker rats [2]) was 36.61 ± 14.89 pg/mL and the cAMP (Obese Zucker rats [2]) was 20.03 ± 0.96 pmol/mL. For the same molecule, the OxyDNA (Obese Zucker rats [2]) was 45.14 ± 2.77 ng/mL, the “ALT (Alanine Aminotransferease)” value (Obese Zucker rats [6]) was 124.29 u/L and the “AP (Alkaline phosphatase)” value (Obese Zucker rats [6]) was 30.00 u/L. The “AST (Aspartate Aminotransferase)” value (Obese Zucker rats [6]) was 237.43 u/L, the “Anion Gap” value (Obese Zucker rats [6]) was 30.14 and the “BUN (Blood Urea Nitrogen)” value (Obese Zucker rats [6]) was 17.43 mg/dL. For the same molecule, the “BUN/CRT Ratio” value (Obese Zucker rats [6]) was 45.86, the “CRT (Creatinine)” value (Obese Zucker rats [6]) was 0.39 mg/dL and the “Total Bilirubin” value (Obese Zucker rats [6]) was 0.10 mg/dL. It also gave a Leptin (Obese Zucker rats [3]) of 601.72 pg/mL, an RBP-4 (Obese Zucker rats [3]) of 60593.24 ng/mL and an Adiponectin (Obese Zucker rats [3]) of 11122.93 ng/mL. The CRP (Obese Zucker rats [3]) was 609.82 ng/mL, the MCP-1 (Obese Zucker rats [3]) was 2578.59 pg/mL and the HDL (Obese Zucker rats [4]) was 60.54 mg/dL. The “Total Chol/HDL” value (Obese Zucker rats [4]) was 3.46 ratio, the “Total Cholesterol” value (Obese Zucker rats [4]) was 208.09 mg/dL and the Triglyceride (Obese Zucker rats [4]) was 921.22 mg/dL. For the same molecule, the “RBC Lipid Peroxidase” value (Obese Zucker rats [5]) was 1.78 nmol/mL, the “Fasting Glucose” value (Obese Zucker rats [5]) was 402.77 mg/dL and the GSH (Obese Zucker rats [5]) was 4.54 µmol/g. It also gave a HbA1c (Obese Zucker rats [5]) of 14.16%.
In the case of `CCC(=O)[O-].CCC(=O)[O-].CCC(=O)[O-].[Cr+3]` [CrProp, Chromium Propionate, reference compound], the IL-6 (Obese Zucker rats [2]) is reported as 90.50 ± 14.02 pg/mL, the TNFα (Obese Zucker rats [2]) is reported as 41.14 ± 10.06 pg/mL and the cAMP (Obese Zucker rats [2]) is reported as 26.95 ± 1.13 pmol/mL. For the same molecule, the OxyDNA (Obese Zucker rats [2]) was 47.19 ± 5.07 ng/mL, the “ALT (Alanine Aminotransferease)” value (Obese Zucker rats [6]) was 207.00 u/L and the “AP (Alkaline phosphatase)” value (Obese Zucker rats [6]) was 32.20 u/L. For the same molecule, the “AST (Aspartate Aminotransferase)” value (Obese Zucker rats [6]) was 347.25 u/L, the “Anion Gap” value (Obese Zucker rats [6]) was 29.20 and the “BUN (Blood Urea Nitrogen)” value (Obese Zucker rats [6]) was 22.25 mg/dL. For the same molecule, the “BUN/CRT Ratio” value (Obese Zucker rats [6]) was 53.40, the “CRT (Creatinine)” value (Obese Zucker rats [6]) was 0.40 mg/dL and the “Total Bilirubin” value (Obese Zucker rats [6]) was 0.10 mg/dL. The Leptin (Obese Zucker rats [3]) was 393.47 pg/mL, the RBP-4 (Obese Zucker rats [3]) was 49851.91 ng/mL and the Adiponectin (Obese Zucker rats [3]) was 12903.52 ng/mL. It also gave a CRP (Obese Zucker rats [3]) of 820.04 ng/mL, an MCP-1 (Obese Zucker rats [3]) of 4497.83 pg/mL and an HDL (Obese Zucker rats [4]) of 64.19 mg/dL. For the same molecule, the “Total Chol/HDL” value (Obese Zucker rats [4]) was 2.68 ratio, the “Total Cholesterol” value (Obese Zucker rats [4]) was 170.56 mg/dL and the Triglyceride (Obese Zucker rats [4]) was 456.14 mg/dL. The “RBC Lipid Peroxidase” value (Obese Zucker rats [5]) was 2.18 nmol/mL, the “Fasting Glucose” value (Obese Zucker rats [5]) was 549.49 mg/dL and the GSH (Obese Zucker rats [5]) was 4.76 µmol/g. The HbA1c (Obese Zucker rats [5]) was 16.90%.
“Chromium Glucodinicotinate [Cr(nic)2Gluc]” showed an IL-6 (Obese Zucker rats [2]) of 81.59 ± 5.21 pg/mL, a TNFα (Obese Zucker rats [2]) of 29.40 ± 8.87 pg/mL and a cAMP (Obese Zucker rats [2]) of 22.25 ± 1.58 pmol/mL. For the same molecule, the OxyDNA (Obese Zucker rats [2]) was 45.10 ± 3.76 ng/mL, the “ALT (Alanine Aminotransferease)” value (Obese Zucker rats [6]) was 138.00 u/L and the “AP (Alkaline phosphatase)” value (Obese Zucker rats [6]) was 27.00 u/L. The “AST (Aspartate Aminotransferase)” value (Obese Zucker rats [6]) was 238.67 u/L, the “Anion Gap” value (Obese Zucker rats [6]) was 29.00 and the “BUN (Blood Urea Nitrogen)” value (Obese Zucker rats [6]) was 21.33 mg/dL. For the same molecule, the “CRT (Creatinine)” value (Obese Zucker rats [6]) was 0.40 mg/dL, the “Total Bilirubin” value (Obese Zucker rats [6]) was 0.10 mg/dL and the Leptin (Obese Zucker rats [3]) was 388.37 pg/mL. It also gave an RBP-4 (Obese Zucker rats [3]) of 48851.14 ng/mL, an Adiponectin (Obese Zucker rats [3]) of 11448.39 ng/mL and a CRP (Obese Zucker rats [3]) of 530.74 ng/mL. The MCP-1 (Obese Zucker rats [3]) was 1977.46 pg/mL, the HDL (Obese Zucker rats [4]) was 65.71 mg/dL and the “Total Chol/HDL” value (Obese Zucker rats [4]) was 3.06 ratio. For the same molecule, the “Total Cholesterol” value (Obese Zucker rats [4]) was 197.33 mg/dL, the Triglyceride (Obese Zucker rats [4]) was 534.43 mg/dL and the “RBC Lipid Peroxidase” value (Obese Zucker rats [5]) was 2.00 nmol/mL. For the same molecule, the “Fasting Glucose” value (Obese Zucker rats [5]) was 474.38 mg/dL, the GSH (Obese Zucker rats [5]) was 4.62 µmol/g and the HbA1c (Obese Zucker rats [5]) was 15.21%. For the same molecule, the “BUN/CRT Ratio” value (Obese Zucker rats [1]) was 53.67.
“Chromium tris(5-hydroxytryptophan) [Cr(5HTP)3]” gave an IL-6 (Obese Zucker rats [2]) of 94.32 ± 11.71 pg/mL, a TNFα (Obese Zucker rats [2]) of 13.35 ± 8.28 pg/mL and a cAMP (Obese Zucker rats [2]) of 25.64 ± 2.39 pmol/mL. The OxyDNA (Obese Zucker rats [2]) was 45.89 ± 4.53 ng/mL, the “ALT (Alanine Aminotransferease)” value (Obese Zucker rats [6]) was 167.00 u/L and the “AP (Alkaline phosphatase)” value (Obese Zucker rats [6]) was 25.00 u/L. For the same molecule, the “AST (Aspartate Aminotransferase)” value (Obese Zucker rats [6]) was 267.43 u/L, the “Anion Gap” value (Obese Zucker rats [6]) was 29.43 and the “BUN (Blood Urea Nitrogen)” value (Obese Zucker rats [6]) was 22.86 mg/dL. For the same molecule, the “BUN/CRT Ratio” value (Obese Zucker rats [6]) was 57.29, the “CRT (Creatinine)” value (Obese Zucker rats [6]) was 0.40 mg/dL and the “Total Bilirubin” value (Obese Zucker rats [6]) was 0.10 mg/dL. The Leptin (Obese Zucker rats [3]) was 359.61 pg/mL, the RBP-4 (Obese Zucker rats [3]) was 44517.99 ng/mL and the Adiponectin (Obese Zucker rats [3]) was 11831.51 ng/mL. The CRP (Obese Zucker rats [3]) was 589.26 ng/mL, the MCP-1 (Obese Zucker rats [3]) was 1932.18 pg/mL and the HDL (Obese Zucker rats [4]) was 68.84 mg/dL. The “Total Chol/HDL” value (Obese Zucker rats [4]) was 2.72 ratio, the “Total Cholesterol” value (Obese Zucker rats [4]) was 184.77 mg/dL and the Triglyceride (Obese Zucker rats [4]) was 452.96 mg/dL. The “RBC Lipid Peroxidase” value (Obese Zucker rats [5]) was 1.93 nmol/mL, the “Fasting Glucose” value (Obese Zucker rats [5]) was 585.25 mg/dL and the GSH (Obese Zucker rats [5]) was 5.04 µmol/g. The HbA1c (Obese Zucker rats [5]) was 16.15%.
In the case of “Chromium Triphenylalanine [Cr(Phe)3, reference compound]”, the IL-6 (Obese Zucker rats [2]) is reported as 89.82 ± 8.55 pg/mL, the TNFα (Obese Zucker rats [2]) is reported as 15.92 ± 7.76 pg/mL and the cAMP (Obese Zucker rats [2]) is reported as 29.62 ± 1.01 pmol/mL. For the same molecule, the OxyDNA (Obese Zucker rats [2]) was 53.11 ± 4.76 ng/mL, the “ALT (Alanine Aminotransferease)” value (Obese Zucker rats [6]) was 186.29 u/L and the “AP (Alkaline phosphatase)” value (Obese Zucker rats [6]) was 30.00 u/L. For the same molecule, the “AST (Aspartate Aminotransferase)” value (Obese Zucker rats [6]) was 276.43 u/L, the “Anion Gap” value (Obese Zucker rats [6]) was 29.00 and the “BUN (Blood Urea Nitrogen)” value (Obese Zucker rats [6]) was 20.71 mg/dL. The “BUN/CRT Ratio” value (Obese Zucker rats [6]) was 52.14, the “CRT (Creatinine)” value (Obese Zucker rats [6]) was 0.40 mg/dL and the “Total Bilirubin” value (Obese Zucker rats [6]) was 0.10 mg/dL. For the same molecule, the Leptin (Obese Zucker rats [3]) was 387.92 pg/mL, the RBP-4 (Obese Zucker rats [3]) was 48555.98 ng/mL and the Adiponectin (Obese Zucker rats [3]) was 11243.47 ng/mL. It also gave a CRP (Obese Zucker rats [3]) of 533.12 ng/mL, an MCP-1 (Obese Zucker rats [3]) of 2064.89 pg/mL and an HDL (Obese Zucker rats [4]) of 60.82 mg/dL. For the same molecule, the “Total Chol/HDL” value (Obese Zucker rats [4]) was 2.84 ratio, the “Total Cholesterol” value (Obese Zucker rats [4]) was 169.68 mg/dL and the Triglyceride (Obese Zucker rats [4]) was 467.04 mg/dL. For the same molecule, the “RBC Lipid Peroxidase” value (Obese Zucker rats [5]) was 2.01 nmol/mL, the “Fasting Glucose” value (Obese Zucker rats [5]) was 549.70 mg/dL and the GSH (Obese Zucker rats [5]) was 4.50 µmol/g. The HbA1c (Obese Zucker rats [5]) was 15.04%.
